The record followed here is US10001584B2, “Optical film, and polarizing plate and liquid crystal display device that use this optical film” (FUJIFILM Corporation, priority 2013, dated 2018).

A short description of series [1]: pKa by alkali titration with automatic potentiometric titrator. In kind it is physicochemical. The conditions noted are these: mixed solvent THF/H2O=6/4 (volume ratio), 25° C.; for pKa: Table 1. The method, then: pKa of the obtained exemplificative compound was measured in a mixed solvent having a volume ratio of tetrahydrofuran (THF)/water (H2O)=6/4 at 25° C. by an alkali titration method using automatic potentiometric titrator [AT-610: manufactured by Kyoto Electronics Manufacturing Co., Ltd.].
The pKa of the compound of the present invention and the comparative compound in a mixed solvent having a volume ratio of tetrahydrofuran (THF)/water (H2O)=6/4 at 25° C. was measured by an alkali titration method using automatic potentiometric titrator (AT-610: manufactured by Kyoto Electronics Manufacturing Co., Ltd.).

Series [2] can be described thus: Volatility: mass change rate of the compound by TG/DTA, held at 140° C. for 1 hour. In kind it is physicochemical. The settings on record: for Volatility: held at 140° C. for 1 hour; for volatility suppression effect: in words, discussion of Table 1. On the procedure:
The compound denoted by Formula (I) in the present invention was heated from room temperature to 140° C. by using a TG/DTA measurement device (TG/DTA7200 manufactured by Hitachi High-Tech Science Corporation), a change rate of the mass of the compound at the time of being held at 140° C. for 1 hour (a change rate with respect to the mass before being heated) was measured, and the volatility was evaluated on the basis of the following criteria.

[3] abbreviates: tetrahydrofuran/water 6/4 (v/v) mixed solvent, read-out: pKa.

Where two headings read alike, the source gives them in different places.

The pKa is the pH at which an ionisable group is half protonated.

In the case of `O=C(O)CN(CC(=O)O)Cc1ccccc1` [(0-2)], in series [1] (setting [3]), the pKa was found to be 3.2. The Volatility result in series [2] (compound alone, Table 1) was “B (The change rate of the mass of greater than or equal to 0.2% and less than 0.5%)”. The volatility suppression effect entry in series [2] is recorded as “insufficient”.
On to `O=C1NC(=O)N(Cc2ccccc2)C(=O)C1c1ccccc1` (stereo not shown) [Comparative Compound (0-1)], for which the pKa in series [1] (setting [3]) came to 3.7. Also, the Volatility result in series [2] (compound alone, Table 1) was “B (The change rate of the mass of greater than or equal to 0.2% and less than 0.5%)”. In addition, in series [2], the volatility suppression effect result is recorded as “insufficient”.
In the case of `CCC(Oc1ccc(C(C)(C)CC)cc1C(C)(C)CC)C(=O)Nc1cccc(C(=O)O)c1` (stereo not shown) [(0-3)], the pKa in series [1] (setting [3]) was found to be 6.6. In addition, the Volatility entry in series [2] (compound alone, Table 1) is on record as “A (The change rate of the mass of less than or equal to 0.2%)”.
With `O=C(O)CN(CC(=O)OCc1ccccc1)CC(=O)OCc1ccccc1` [Exemplificative Compound (1-1)], the “pKa Value” in series [1] was 6.0. Moreover, the pKa in series [1] came out at 6.0. For the same molecule, the Volatility entry in series [2] (additive, Table 3) is “A (The change rate of the mass of less than or equal to 0.2%)”; in series [2] (additive, Table 4), “A (The change rate of the mass of less than or equal to 0.2%)”; in series [2] (compound alone, Table 1), “A (The change rate of the mass of less than or equal to 0.2%)”.
